# Assay results: patent US7939563B2, “Remedy for hypertension” (Kao Corporation, priority 2001, dated 2011)
# Legend:
# [1] = test system: spontaneously hypertensive male rats (SHR); test: Measurement of an antihypertensive effect: oral administration, systolic blood pressure of the caudal artery; assay type: in vivo, rat; conditions: 50 mg/Kg oral
# Protocol: After each of 15 week-old, spontaneously hypertensive male rats (“SHR”) was accustomed to sphygmomanometric operation by preliminarily measuring its blood pressure for 7 successive days using a commercially available noninvasive sphygmomanometer for rats (manufactured by Softlon Co., Ltd.), the evaluation test was started. The rats were all bred under conditions (in a breeding room in a rat region) at a room temperature of 25±1° C., humidity of 55±10% RH and illumination for 12 hours (from 7:00 am to 7:00 pm).
# In the test plot (Comparative Example), a solution of ferulic acid (50 mg/kg as a dose) in physiological saline was employed. In Test plot 2, Test plot 3, Test plot 4, Test plot 5 and Test plot 6, a solution of chlorogenic acid (50 mg/kg as a dosage) in physiological saline, oryzanol (50 mg/kg as a dosage), curcumin (50 mg/kg as a dosage), phenylethyl caffeate (50 mg/kg as a dosage) and rosmarinic acid (50 mg/kg as a dosage) were used, respectively. In each test plot, physiological saline was employed as a control. Each of the samples was orally administered.
# SHRs were fasted overnight and divided into groups, each consisting of 5 rats. Systolic blood pressures of the caudal artery were measured prior to administration, and several times during 30 minutes to 24 hours after administration
# The test results thus obtained were expressed by the mean value (%) and […] (SE) of the changing ratio (%) in systolic blood pressure.
# A lowering ratio of the systolic blood pressure measured during 30 minutes to 24 hours each after administration relative to the systolic blood pressure prior to administration is shown in Table 1.
# [2] = test system: spontaneously hypertensive male rats (SHR); test: Identification of an antihypertensive component: intravenous administration, systolic blood pressure of the carotid artery; assay type: in vivo, rat; conditions: anesthetized 15 week-old SHR, 5 μg mol/kg in physiological saline, intravenous via femoral vein catheter
# Protocol: Its electrocardiograph was recorded by an electrocardiogram. A sample was injected to the femoral vein through a catheter. After the rats were accustomed sufficiently to the sphygmomanometric operation, the evaluation test was started. The rats were all bred under conditions (in a breeding room in a rat region) at a room temperature of 25±1° C., humidity of 55±10% RH and illumination for 12 hours (from 7:00 am to 7:00 pm). In the control plot, physiological saline was employed. […] Through a catheter, the sample was intravenously administered and while administration, systolic blood pressures of the carotid artery were measured with the passage of time.
# [3] = Blood levels of chlorogenic acid, caffeic acid and ferulic acid after oral chlorogenic acid in SHR; assay type: in vivo, rat; parameters: unit not given here; conditions: 200 mg/kg chlorogenic acid oral once
# Protocol: To the SHR, 200 mg/kg of chlorogenic acid was orally administered once.
# SHRs were fasted overnight and then divided into groups, each consisting of 5 rats.
# [4] = Blood levels after 6 weeks of a beverage mixture containing an extract of raw coffee beans, liquid chromatography; assay type: in vivo; conditions: human, plasma, oral; read-out: blood level 24 hours after administration of chlorogenic acid
# Protocol: The blood levels of chlorogenic acid, caffeic acid and ferulic acid were measured using liquid chromatography.
# [5] = Blood level time course of ferulic acid after administration; assay type: in vivo
# [6] = time 0 (prior to administration)
"blood level after the administration of chlorogenic acid [3, 6]",blood level after the administration of chlorogenic acid ([3]; time 3),blood level after the administration of chlorogenic acid ([3]; time 6),blood level after the administration of chlorogenic acid ([3]; time 9),blood level after the administration of chlorogenic acid ([3]; time 12),blood level after the administration of chlorogenic acid ([3]; time 24),Molecule,"changing ratio in systolic blood pressure (mean) [1, 6]",fluctuation in systolic blood pressure of the carotid artery [2],changing ratio in systolic blood pressure (mean) ([1]; time 6 after administration),changing ratio in systolic blood pressure (mean) ([1]; time 12 after administration),changing ratio in systolic blood pressure (mean) ([1]; time 24 after administration),other results
,,,,,,oryzanol,0%,,,,,changing ratio in systolic blood pressure (mean) ([1]; time 1 after administration): −15.2%; changing ratio in systolic blood pressure (mean) ([1]; time 2 after administration): −12.8%; changing ratio in systolic blood pressure (mean) ([1]; time 4 after administration): −13.8%
0,0.07,0.179,0.166,0.05,0,O=C(O)/C=C/c1ccc(O)c(O)c1 [caffeic acid],,Fluctuations in the blood pressure was not recognized,,,,concentration at 24 h [4]: 95.4 ng/mL
,,,,,,"O=C(/C=C/c1ccc(O)c(O)c1)O[C@H]1[C@H](O)C[C@](O)(C(=O)O)C[C@H]1O [4-chlorogenic acid, 4-caffeoylquinic acid]",0%,,−8.5%,−9.1%,−11.0%,
0,0,0,0,0,0,"O=C(/C=C/c1ccc(O)c(O)c1)O[C@@H]1C[C@](O)(C(=O)O)C[C@@H](O)[C@H]1O [5-chlorogenic acid, 5-caffeoylquinic acid]",,,,,,
0,0.074,0.154,0.174,0.145,0,COc1cc(/C=C/C(=O)O)ccc1O [ferulic acid],0%,lowering in the blood pressure was recognized,−3.2%,,,changing ratio in systolic blood pressure (mean) ([1]; time 0.5 after administration): −9.5%; changing ratio in systolic blood pressure (mean) ([1]; time 1 after administration): −10.3%; changing ratio in systolic blood pressure (mean) ([1]; time 2 after administration): −6.8%; changing ratio in systolic blood pressure (mean) ([1]; time 4 after administration): −7.9%; concentration at 24 h [4]: 104 ng/mL; time after which metabolism and excretion are completed [5]: about 4 hours; time at which the blood level reaches the maximum [5]: about 2 hours
,,,,,,COc1cc(/C=C/C(=O)CC(=O)/C=C/c2ccc(O)c(OC)c2)ccc1O [curcumin],0%,,−15.2%,−3.5%,−5.3%,
,,,,,,O=C(O)[C@]1(O)C[C@@H](O)[C@@H](O)[C@H](O)C1 [quinic acid],,Fluctuations in the blood pressure was not recognized,,,,
,,,,,,"O=C(/C=C/c1ccc(O)c(O)c1)OCCc1ccccc1 [phenylethyl caffeic acid, phenylethyl caffeate]",0%,,−13.7%,−1.3%,−0.7%,
,,,,,,"O=C(/C=C/c1ccc(O)c(O)c1)O[C@H](Cc1ccc(O)c(O)c1)C(=O)O [rosemaric acid, rosmarinic acid]",0%,,−6.4%,0.9%,2.2%,
